{
  "source": "patent US20260060961A1",
  "about": "“SUBSTITUTED HETEROCYCLES AS RAS INHIBITORS” (Jazz Pharmaceuticals Ireland Limited, priority 2022, published 2026)",
  "data": [
    {"molecular_target": "Recombinant human KRAS protein containing the G12C amino acid substitution (Homo sapiens (Human), UniProt P01116, G12C)", "sequence (P01116 other isoform, or with tags, fused parts or gaps G12C)": "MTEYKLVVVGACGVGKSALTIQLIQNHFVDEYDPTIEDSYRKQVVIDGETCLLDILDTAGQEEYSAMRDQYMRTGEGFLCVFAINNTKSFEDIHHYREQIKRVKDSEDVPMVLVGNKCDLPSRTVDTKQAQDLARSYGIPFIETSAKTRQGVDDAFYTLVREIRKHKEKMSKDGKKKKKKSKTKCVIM", "assay": "HTRF nucleotide exchange assay, KRAS G12C", "type": "biochemical", "conditions": "180 minute incubation with compound at room temperature; at least two independent replicates; read-out: KRAS G12C HTRF NEA IC50", "method": "The capacity of compounds to bind KRAS G12C and KRAS wildtype was quantified using a HTRF nucleotide exchange assay. Recombinant human KRAS protein (5 nM; aa1-188 KRAS WT or KRAS containing the G12C amino acid substitution, an N-terminal 6×His-tag and leader sequence), and 2 nM Europium-labeled anti-6×His antibody were mixed in assay buffer (10 mM HEPES pH7.3, 75 mM NaCl, 5 mM MgCl2, 0.05% BSA, 0.0025% NP-40 and 100 mM KF) with various concentrations of compound in a 384-well plate and a volume of 5 μL. After a 180 minute incubation at room temperature, 5 μl of 200 nM EDA-GTP-DY647P1 diluted in assay buffer was added to the plate. Following 30-minute incubation at room temperature, time-resolved fluorescence was measured on a PerkinElmer Envision plate reader. DMSO (0.3%) and unlabeled GDP (1 μM) or equivalent tool compound were used to generate the Max and Min assay signals, respectively. Data was analysed using a four-parameter logistic model to calculate IC50 values, with at least two independent replicates were performed for each compound.", "units": {"IC50": "µM"}, "values": [
      {"compound": "C=CC(=O)N1CC2(CC(c3nc(-c4ccc5c(cnn5C)c4)c(-c4c(C)ccc5[nH]ncc45)n3C)C2)C1", "note": "[Example 1, 1-[6-[1-methyl-4-(1-methylindazol-5-yl)-5-(5-methyl-1H-indazol-4-yl)imidazol-2-yl]-2-azaspiro[3.3]heptan-2-yl]prop-2-en-1-one]", "IC50": "≤ 1"},
      {"compound": "C=CC(=O)N1CC2(CC(c3nc(-c4ccccc4)c(-c4c(C)ccc5[nH]ncc45)n3C)C2)C1", "note": "[Example 2, 1-[6-[1-methyl-5-(5-methyl-1H-indazol-4-yl)-4-phenyl-imidazol-2-yl]-2-azaspiro[3.3]heptan-2-yl]prop-2-en-1-one]", "IC50": "1 to 10"},
      {"compound": "C=CC(=O)N1CC2(CC(c3nc(-c4cccnc4)c(-c4c(C)ccc5[nH]ncc45)n3C)C2)C1", "note": "[Example 3, 1-[6-[1-methyl-5-(5-methyl-1H-indazol-4-yl)-4-(3-pyridyl)imidazol-2-yl]-2-azaspiro[3.3]heptan-2-yl]prop-2-en-1-one]", "IC50": "≥ 10"},
      {"compound": "C=CC(=O)N1CC2(CC(c3nc(-c4ccc(OC)cc4F)c(-c4c(C)ccc5[nH]ncc45)n3C)C2)C1", "note": "[Example 4, 1-[6-[4-(2-fluoro-4-methoxy-phenyl)-1-methyl-5-(5-methyl-1H-indazol-4-yl)imidazol-2-yl]-2-azaspiro[3.3]heptan-2-yl]prop-2-en-1-one]", "IC50": "1 to 10"},
      {"compound": "C=CC(=O)N1CC2(CC(c3nc(-c4ccc(N5CCOCC5)cc4)c(-c4c(C)ccc5[nH]ncc45)n3C)C2)C1", "note": "[Example 5, 1-[6-[1-methyl-5-(5-methyl-1H-indazol-4-yl)-4-(4-morpholinophenyl)imidazol-2-yl]-2-azaspiro[3.3]heptan-2-yl]prop-2-en-1-one]", "IC50": "≤ 1"},
      {"compound": "C=CC(=O)N1CC2(CC(c3nc(-c4cccc(N5CCOCC5)c4)c(-c4c(C)ccc5[nH]ncc45)n3C)C2)C1", "note": "[Example 6, 1-[6-[1-methyl-5-(5-methyl-1H-indazol-4-yl)-4-(3-morpholinophenyl)imidazol-2-yl]-2-azaspiro[3.3]heptan-2-yl]prop-2-en-1-one]", "IC50": "1 to 10"},
      {"compound": "C=CC(=O)N1CC2(CC(c3nc(-c4ccc5cnn(C)c5c4)c(-c4c(C)ccc5[nH]ncc45)n3C)C2)C1", "note": "[Example 7, 1-[6-[1-methyl-4-(1-methylindazol-6-yl)-5-(5-methyl-1H-indazol-4-yl)imidazol-2-yl]-2-azaspiro[3.3]heptan-2-yl]prop-2-en-1-one]", "IC50": "1 to 10"},
      {"compound": "C=CC(=O)N1CC2(CC(c3nc(-c4ccc(-n5cnc(C6CC6)c5)cc4)c(-c4c(C)ccc5[nH]ncc45)n3C)C2)C1", "note": "[Example 8, 1-[6-[4-[4-(4-cyclopropylimidazol-1-yl)phenyl]-1-methyl-5-(5-methyl-1H-indazol-4-yl)imidazol-2-yl]-2-azaspiro[3.3]heptan-2-yl]prop-2-en-1-one]", "IC50": "1 to 10"},
      {"compound": "C=CC(=O)N1CC2(CC(c3nc(-c4ccc5c(c4)nc(C)n5C)c(-c4c(C)ccc5[nH]ncc45)n3C)C2)C1", "note": "[Example 9, 1-[6-[4-(1,2-dimethylbenzimidazol-5-yl)-1-methyl-5-(5-methyl-1H-indazol-4-yl)imidazol-2-yl]-2-azaspiro[3.3]heptan-2-yl]prop-2-en-1-one]", "IC50": "1 to 10"},
      {"compound": "C=CC(=O)N1CC2(CC(c3nc(-c4cnn(CCN5CCOCC5)c4)c(-c4c(C)ccc5[nH]ncc45)n3C)C2)C1", "note": "[Example 10, 1-[6-[1-methyl-5-(5-methyl-1H-indazol-4-yl)-4-[1-(2-morpholinoethyl)pyrazol-4-yl]imidazol-2-yl]-2-azaspiro[3.3]heptan-2-yl]prop-2-en-1-one]", "IC50": "≥ 10"},
      {"compound": "C=CC(=O)N1CC2(CC(c3nc(-c4ccc5c(cnn5C)c4C)c(-c4c(C)ccc5[nH]ncc45)n3C)C2)C1", "note": "[Example 11, 1-[6-[4-(1,4-dimethylindazol-5-yl)-1-methyl-5-(5-methyl-1H-indazol-4-yl)imidazol-2-yl]-2-azaspiro[3.3]heptan-2-yl]prop-2-en-1-one]", "IC50": "1 to 10"},
      {"compound": "C=CC(=O)N1CC2(CC(c3nc(-c4cn(C)nc4C)c(-c4c(C)ccc5[nH]ncc45)n3C)C2)C1", "note": "[Example 12, 1-[6-[4-(1,3-dimethylpyrazol-4-yl)-1-methyl-5-(5-methyl-1H-indazol-4-yl)imidazol-2-yl]-2-azaspiro[3.3]heptan-2-yl]prop-2-en-1-one]", "IC50": "≥ 10"},
      {"compound": "C=CC(=O)N1CC2(CC(c3nc(-c4cnn(CC)c4)c(-c4c(C)ccc5[nH]ncc45)n3C)C2)C1", "note": "[Example 13, 1-[6-[4-(1-ethylpyrazol-4-yl)-1-methyl-5-(5-methyl-1H-indazol-4-yl)imidazol-2-yl]-2-azaspiro[3.3]heptan-2-yl]prop-2-en-1-one]", "IC50": "≥ 10"},
      {"compound": "C=CC(=O)N1CC2(CC(c3nc(-c4ccc5nn(C)cc5c4)c(-c4c(C)ccc5[nH]ncc45)n3C)C2)C1", "note": "[Example 14, 1-[6-[1-methyl-4-(2-methylindazol-5-yl)-5-(5-methyl-1H-indazol-4-yl)imidazol-2-yl]-2-azaspiro[3.3]heptan-2-yl]prop-2-en-1-one]", "IC50": "≤ 1"},
      {"compound": "C=CC(=O)N1CC2(CC(c3nc(-c4cnn(CCOC)c4)c(-c4c(C)ccc5[nH]ncc45)n3C)C2)C1", "note": "[Example 15, 1-[6-[4-[1-(2-methoxyethyl)pyrazol-4-yl]-1-methyl-5-(5-methyl-1H-indazol-4-yl)imidazol-2-yl]-2-azaspiro[3.3]heptan-2-yl]prop-2-en-1-one]", "IC50": "≥ 10"},
      {"compound": "C=CC(=O)N1CC2(CC(c3nc(-c4ccc5c(c4)c(C)nn5C)c(-c4c(C)ccc5[nH]ncc45)n3C)C2)C1", "note": "[Example 16, 1-[6-[4-(1,3-dimethylindazol-5-yl)-1-methyl-5-(5-methyl-1H-indazol-4-yl)imidazol-2-yl]-2-azaspiro[3.3]heptan-2-yl]prop-2-en-1-one]", "IC50": "1 to 10"},
      {"compound": "C=CC(=O)N1CC2(CC(c3nc(-c4ccc5ocnc5c4)c(-c4c(C)ccc5[nH]ncc45)n3C)C2)C1", "note": "[Example 17, 1-[6-[4-(1,3-benzoxazol-5-yl)-1-methyl-5-(5-methyl-1H-indazol-4-yl)imidazol-2-yl]-2-azaspiro[3.3]heptan-2-yl]prop-2-en-1-one]", "IC50": "1 to 10"},
      {"compound": "C=CC(=O)N1CC2(CC(c3nc(-c4ccc5c(c4)OCCN5C)c(-c4c(C)ccc5[nH]ncc45)n3C)C2)C1", "note": "[Example 18, 1-[6-[1-methyl-4-(4-methyl-2,3-dihydro-1,4-benzoxazin-7-yl)-5-(5-methyl-1H-indazol-4-yl)imidazol-2-yl]-2-azaspiro[3.3]heptan-2-yl]prop-2-en-1-one]", "IC50": "≤ 1"},
      {"compound": "C=CC(=O)N1CC2(CC(c3nc(-c4ccc(OCC(=O)N(C)C)cc4)c(-c4c(C)ccc5[nH]ncc45)n3C)C2)C1", "note": "[Example 19, N,N-dimethyl-2-[4-[1-methyl-5-(5-methyl-1H-indazol-4-yl)-2-(2-prop-2-enoyl-2-azaspiro[3.3]heptan-6-yl)imidazol-4-yl]phenoxy]acetamide]", "IC50": "1 to 10"},
      {"compound": "C=CC(=O)N1CC2(CC(c3nc(-c4ccc(OCC(=O)N5CCOCC5)cc4)c(-c4c(C)ccc5[nH]ncc45)n3C)C2)C1", "note": "[Example 20, 1-[6-[1-methyl-5-(5-methyl-1H-indazol-4-yl)-4-[4-(2-morpholino-2-oxo-ethoxy)phenyl]imidazol-2-yl]-2-azaspiro[3.3]heptan-2-yl]prop-2-en-1-one]", "IC50": "1 to 10"},
      {"compound": "C=CC(=O)N1CC2(CC(c3nc(-c4ccc(C(=O)NCCN(C)C)cc4)c(-c4c(C)ccc5[nH]ncc45)n3C)C2)C1", "note": "[Example 22, N-[2-(dimethylamino)ethyl]-4-[1-methyl-5-(5-methyl-1H-indazol-4-yl)-2-(2-prop-2-enoyl-2-azaspiro[3.3]heptan-6-yl)imidazol-4-yl]benzamide]", "IC50": "1 to 10"}
    ]}
  ]
}
